Data set [1] is described as follows: Thioflavin T (ThT) assay: lagtime and peptide recovery. Format: physicochemical. To be noted: assay terminated after 45 hours; for LagTime (h) at pH 4.0: ThT, 37° C., shaking; for LagTime (h) at pH 6.5: ThT assay, pH 6.5, 37° C. The method in brief:
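ThT (final about 1 μM) was added to peptide supernatants at pH 4.0 and 6.5 and incubated at 37 °C with orbital shaking for 45 h. Fluorescence (ex 444/em 485 nm) was read every 20 min, and lag-time was taken as the time to onset of signal rise. Recovery is the RP-UPLC (215 nm) total peak area after vs. before incubation.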

The nature of data set [2]: High-Molecular-Weight-Protein (HMWP) formation by SEC-UPLC. To be noted: increase over two weeks at 37° C. Format: physicochemical. The method in brief:
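Formulations at pH 4.0 or 6.5 incubated quiescently for two weeks at 37 °C; HMWP (peaks eluting before monomer, % of total peptide area) measured by SEC-UPLC, pH 2.4 mobile phase with 50% isopropanol, 50 °C, UV 215 nm. Value is HMWP increase, normalized to two weeks if needed.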
(In gel filtration, larger molecules generally elute earlier.)

Values joined by “and” are separate entries in the source; they are usually repeats but may differ in a detail not shown here. Identical values can stand only once. Starred links: 1 amine or outer side, 2 acyl side, 3 side chain; linkers in the order of their positions; H or OH if unused. Positions of bridges follow the written chain, without caps; N, C: chain ends. Residues, ends and D or L forms follow the SMILES beside them. *: point of attachment. C18 diacid = O=C(O)CCCCCCCCCCCCCCCCC(=O)*; γGlu = O=C(O)[C@H](CCC(=O)[*:2])N[*:1]; AEEA = NCCOCCOCC(=O)O

Consider `CC[C@H](C)[C@@H]1NC(=O)[C@H](CCCNC(=N)N)NC(=O)[C@H](CC(=O)O)NC(=O)[C@H](CC(C)C)NC(=O)[C@@H]2CCCN2C(=O)[C@H](CC(C)C)NC(=O)CNC(=O)[C@H](Cc2ccccc2)NC(=O)[C@@H](NC(=O)CNC(=O)[C@H](CO)NC(=O)[C@H](CO)NC(=O)[C@@H](NC(=O)CNC(=O)[C@H](CCCCN)NC(=O)[C@H](CCCCN)NC(=O)[C@H](CCC(N)=O)NC(=O)[C@H](C)NC(=O)CNC(=O)[C@H](Cc2c[nH]cn2)NC(=O)[C@H](Cc2ccc(O)cc2)NC(=O)[C@H](CCCCN)NC(=O)[C@H](CCCNC(=N)N)NC(=O)[C@H](C)NC(=O)COCCOCCNC(=O)COCCOCCNC(=O)CC[C@H](NC(=O)CC[C@H](NC(=O)CC[C@H](NC(=O)CCCCCCCCCCCCCCCCC(=O)O)C(=O)O)C(=O)O)C(=O)O)C(C)C)CSSC[C@@H](C(=O)O)NC(=O)CNC(=O)[C@H](CC(C)C)NC(=O)CNC(=O)[C@H](CO)NC(=O)[C@H](CC(C)C)NC(=O)[C@H](CO)NC(=O)CNC1=O` [compound 1422] ({C18 diacid-γGlu-γGlu-γGlu-AEEA-AEEA}-ARKYHGAQKKGVSSGCFGLPLDRIGSLSGLGC-OH; disulfide 16-32), for which the “LagTime (h) at pH 4.0” value in data set [1] turned out to be 45 h. In addition, the “2-Week HMWP formation at pH 4.0 (%), % relative to total peak area” value in data set [2] was found to be 36%.
With `CC[C@H](C)[C@@H]1NC(=O)[C@H](CCCNC(=N)N)NC(=O)[C@H](CC(=O)O)NC(=O)[C@H](CC(C)C)NC(=O)[C@@H]2CCCN2C(=O)[C@H](CC(C)C)NC(=O)CNC(=O)[C@H](Cc2ccccc2)NC(=O)[C@@H](NC(=O)CNC(=O)[C@H](CCC(N)=O)NC(=O)[C@H](CO)NC(=O)CNC(=O)CNC(=O)[C@H](CCCCN)NC(=O)[C@H](Cc2c[nH]cn2)NC(=O)[C@H](CCC(N)=O)NC(=O)[C@H](C)NC(=O)CNC(=O)[C@H](CCC(=O)O)NC(=O)[C@H](Cc2ccc(O)cc2)NC(=O)[C@H](CCCCN)NC(=O)[C@H](CCCNC(=N)N)NC(=O)[C@H](C)NC(=O)COCCOCCNC(=O)COCCOCCNC(=O)COCCOCCNC(=O)COCCOCCNC(=O)CC[C@H](NC(=O)CC[C@H](NC(=O)CCCCCCCCCCCCCCCCC(=O)O)C(=O)O)C(=O)O)CSSC[C@@H](C(=O)O)NC(=O)CNC(=O)[C@H](CC(C)C)NC(=O)CNC(=O)[C@H](CO)NC(=O)[C@H](CC(C)C)NC(=O)[C@H](CO)NC(=O)CNC1=O` [compound 1432] ({C18 diacid-γGlu-γGlu-AEEA-AEEA-AEEA-AEEA}-ARKYEGAQHKGGSQGCFGLPLDRIGSLSGLGC-OH; disulfide 16-32), in data set [1], the “LagTime (h) at pH 6.5” value turned out to be 45 h. Moreover, the “2-Week HMWP formation at pH 6.5 (%), % relative to total peak area” value in data set [2] turned out to be 2.89%.
Regarding `CC[C@H](C)[C@@H]1NC(=O)[C@H](CCCNC(=N)N)NC(=O)[C@H](CC(=O)O)NC(=O)[C@H](CC(C)C)NC(=O)[C@@H]2CCCN2C(=O)[C@H](CC(C)C)NC(=O)CNC(=O)[C@H](Cc2ccccc2)NC(=O)[C@@H](NC(=O)CNC(=O)[C@H](CCC(N)=O)NC(=O)[C@H](CO)NC(=O)CNC(=O)CNC(=O)[C@H](CCCCN)NC(=O)[C@H](CCCCN)NC(=O)[C@H](CCC(N)=O)NC(=O)[C@H](C)NC(=O)CNC(=O)[C@H](Cc2c[nH]cn2)NC(=O)[C@H](Cc2ccc(O)cc2)NC(=O)COCCOCCNC(=O)COCCOCCNC(=O)COCCOCCNC(=O)COCCOCCNC(=O)CC[C@H](NC(=O)CC[C@H](NC(=O)CCCCCCCCCCCCCCCCC(=O)O)C(=O)O)C(=O)O)CSSC[C@@H](C(=O)O)NC(=O)CNC(=O)[C@H](CC(C)C)NC(=O)CNC(=O)[C@H](CO)NC(=O)[C@H](CC(C)C)NC(=O)[C@H](CO)NC(=O)CNC1=O` [compound 1434] ({C18 diacid-γGlu-γGlu-AEEA-AEEA-AEEA-AEEA}-YHGAQKKGGSQGCFGLPLDRIGSLSGLGC-OH; disulfide 13-29), the “LagTime (h) at pH 6.5” value in data set [1] is recorded as 45 h. In data set [2], the “2-Week HMWP formation at pH 6.5 (%), % relative to total peak area” value is 3.2%.
For the molecule `CC[C@H](C)[C@@H]1NC(=O)[C@H](CCCNC(=N)N)NC(=O)[C@H](CC(=O)O)NC(=O)[C@H](CC(C)C)NC(=O)[C@@H]2CCCN2C(=O)[C@H](CC(C)C)NC(=O)CNC(=O)[C@H](Cc2ccccc2)NC(=O)[C@@H](NC(=O)CNC(=O)[C@H](CCC(N)=O)NC(=O)[C@H](CO)NC(=O)[C@H](CC(C)C)NC(=O)CNC(=O)[C@H](CCCCN)NC(=O)[C@H](CCCCN)NC(=O)[C@H](CCC(N)=O)NC(=O)[C@H](C)NC(=O)CNC(=O)[C@H](CCCCN)NC(=O)[C@H](Cc2ccc(O)cc2)NC(=O)[C@H](CCCCN)NC(=O)[C@H](CCCNC(=N)N)NC(=O)[C@H](C)NC(=O)COCCOCCNC(=O)COCCOCCNC(=O)CC[C@H](NC(=O)CC[C@H](NC(=O)CC[C@H](NC(=O)CC[C@H](NC(=O)CC[C@H](NC(=O)CCCCCCCCCCCCCCCCC(=O)O)C(=O)O)C(=O)O)C(=O)O)C(=O)O)C(=O)O)CSSC[C@@H](C(=O)O)NC(=O)CNC(=O)[C@H](CC(C)C)NC(=O)CNC(=O)[C@H](CO)NC(=O)[C@H](CC(C)C)NC(=O)[C@H](CO)NC(=O)CNC1=O` [compound 1453] ({C18 diacid-γGlu-γGlu-γGlu-γGlu-γGlu-AEEA-AEEA}-ARKYKGAQKKGLSQGCFGLPLDRIGSLSGLGC-OH; disulfide 16-32), the “LagTime (h) at pH 6.5” value in data set [1] was 45 h. For the same molecule, the “2-Week HMWP formation at pH 6.5 (%), % relative to total peak area” value in data set [2] was determined as 3.94%.
On the same counts, the results for `CC[C@H](C)[C@@H]1NC(=O)[C@H](CCCNC(=N)N)NC(=O)[C@H](CC(=O)O)NC(=O)[C@H](CC(C)C)NC(=O)[C@@H]2CCCN2C(=O)[C@H](CC(C)C)NC(=O)CNC(=O)[C@H](Cc2ccccc2)NC(=O)[C@@H](NC(=O)CNC(=O)[C@H](CCC(N)=O)NC(=O)[C@H](CO)NC(=O)[C@H](CO)NC(=O)CNC(=O)[C@H](CCCCN)NC(=O)[C@H](CCCCN)NC(=O)[C@H](CCC(N)=O)NC(=O)[C@H](C)NC(=O)CNC(=O)[C@@H]2CCCN2C(=O)[C@H](C)NC(=O)[C@H](CCC(N)=O)NC(=O)CNC(=O)[C@@H]2CCCN2C(=O)[C@H](C)NC(=O)[C@H](CCC(N)=O)NC(=O)CNC(=O)[C@@H]2CCCN2C(=O)[C@H](C)NC(=O)[C@H](CCC(N)=O)NC(=O)CNC(=O)COCCOCCNC(=O)COCCOCCNC(=O)CC[C@H](NC(=O)CCCCCCCCCCCCCCCCC(=O)O)C(=O)O)CSSC[C@@H](C(=O)O)NC(=O)CNC(=O)[C@H](CC(C)C)NC(=O)CNC(=O)[C@H](CO)NC(=O)[C@H](CC(C)C)NC(=O)[C@H](CO)NC(=O)CNC1=O` [compound 1457] ({C18 diacid-γGlu-AEEA-AEEA}-GQAPGQAPGQAPGAQKKGSSQGCFGLPLDRIGSLSGLGC-OH; disulfide 23-39) are 45 h and 3.24%.
`CC[C@H](C)[C@@H]1NC(=O)[C@H](CCCNC(=N)N)NC(=O)[C@H](CC(=O)O)NC(=O)[C@H](CC(C)C)NC(=O)[C@@H]2CCCN2C(=O)[C@H](CC(C)C)NC(=O)CNC(=O)[C@H](Cc2ccccc2)NC(=O)[C@@H](NC(=O)CNC(=O)[C@H](CCCCN)NC(=O)[C@H](CO)NC(=O)[C@H](CC(C)C)NC(=O)CNC(=O)[C@H](CCCCN)NC(=O)[C@H](CCCCN)NC(=O)[C@H](CCC(N)=O)NC(=O)[C@H](C)NC(=O)CNC(=O)[C@H](CCCCN)NC(=O)[C@H](Cc2ccc(O)cc2)NC(=O)[C@H](CCCCN)NC(=O)[C@H](CCCNC(=N)N)NC(=O)[C@H](C)NC(=O)COCCOCCNC(=O)COCCOCCNC(=O)CC[C@H](NC(=O)CC[C@H](NC(=O)CC[C@H](NC(=O)CC[C@H](NC(=O)CC[C@H](NC(=O)CCCCCCCCCCCCCCCCC(=O)O)C(=O)O)C(=O)O)C(=O)O)C(=O)O)C(=O)O)CSSC[C@@H](C(=O)O)NC(=O)CNC(=O)[C@H](CC(C)C)NC(=O)CNC(=O)[C@H](CO)NC(=O)[C@H](CC(C)C)NC(=O)[C@H](CO)NC(=O)CNC1=O` [compound 1470] ({C18 diacid-γGlu-γGlu-γGlu-γGlu-γGlu-AEEA-AEEA}-ARKYKGAQKKGLSKGCFGLPLDRIGSLSGLGC-OH; disulfide 16-32): the “LagTime (h) at pH 4.0” value in data set [1] is 45 h. Further, in data set [2], the “2-Week HMWP formation at pH 4.0 (%), % relative to total peak area” value was 1.75%.
`CC[C@H](C)[C@@H]1NC(=O)[C@H](CCCNC(=N)N)NC(=O)[C@H](CC(=O)O)NC(=O)[C@H](CC(C)C)NC(=O)[C@@H]2CCCN2C(=O)[C@H](CC(C)C)NC(=O)CNC(=O)[C@H](Cc2ccccc2)NC(=O)[C@@H](NC(=O)CNC(=O)[C@H](CO)NC(=O)[C@H](CO)NC(=O)[C@H](CC(C)C)NC(=O)CNC(=O)[C@H](CCCCN)NC(=O)[C@H](CCCCN)NC(=O)[C@H](CCC(N)=O)NC(=O)[C@H](C)NC(=O)CNC(=O)[C@H](CCCCN)NC(=O)[C@H](Cc2ccc(O)cc2)NC(=O)[C@H](CCCCN)NC(=O)[C@H](CCCNC(=N)N)NC(=O)[C@H](C)NC(=O)[C@H](CCC(N)=O)NC(=O)[C@@H]2CCCN2C(=O)[C@H](Cc2c[nH]cn2)NC(=O)[C@H](CCC(=O)O)NC(=O)[C@H](CCC(N)=O)NC(=O)COCCOCCNC(=O)COCCOCCNC(=O)CC[C@H](NC(=O)CC[C@H](NC(=O)CC[C@H](NC(=O)CC[C@H](NC(=O)CCCCCCCCCCCCCCCCC(=O)O)C(=O)O)C(=O)O)C(=O)O)C(=O)O)CSSC[C@@H](C(=O)O)NC(=O)CNC(=O)[C@H](CC(C)C)NC(=O)CNC(=O)[C@H](CO)NC(=O)[C@H](CC(C)C)NC(=O)[C@H](CO)NC(=O)CNC1=O` [compound 1473] ({C18 diacid-γGlu-γGlu-γGlu-γGlu-AEEA-AEEA}-QEHPQARKYKGAQKKGLSSGCFGLPLDRIGSLSGLGC-OH; disulfide 21-37; C-terminus assumed): in data set [1], the “LagTime (h) at pH 4.0” value is 45 h. The “2-Week HMWP formation at pH 4.0 (%), % relative to total peak area” value in data set [2] was 0.9% and 1.26%.

These data come from patent US20240209028A1, “CNP COMPOUNDS” (priority 2022, published 2024).
